Results from patent publication US10370438B2, “Histamine-releasing factor (HRF), HRF-receptor and methods of modulating inflammation” (LA JOLLA INSTITUTE FOR ALLERGY AND IMMUNOLOGY, priority 2010, dated 2019).
Entries after “also recorded” stand apart in the source; their conditions may differ.

Columns and labels:
[1] = tested on: BALB/c mice; assay: OVA-induced food allergy (diarrhea) model; type: in vivo, mouse
Experimental: BALB/c mice were intraperitoneally sensitised with OVA (50 μg/mouse) plus alum on days 0 and 14. From day 28, mice were intragastrically challenged with OVA (50 mg) three times a week (Brandt, E. B. et al. J. Clin. Invest. 112:1666-1677 (2003)). Before each challenge, mice were starved for 3 h, then pretreated intragastrically with GST or GST-N19 (100 μg), and rested for 30 min. The development of diarrhoea was visually monitored for 90 min after OVA challenge.
To evaluate the role of HRF in food allergy, an OVA-induced food allergy model developed by Brandt et al. (Brandt et al., J. Clin. Invest. 112:1666 (2003)) was employed. BALB/c mice that were 6-8-week-old were intraperitoneal (i.p.) immunized twice on days 0 and 14 with 50 μg of OVA in the presence of alum. From day 28, mice were intragastrically challenged with OVA (50 mg) three times a week. Before each challenge, mice were starved for 3 hours, then pretreated with GST or GST-N19 (100 μg/mouse) intragastrically, and rested for 30 minutes. Control mice were sensitized and challenged, but not pretreated. The development of diarrhea was monitored for ninety minutes after OVA challenge. […] Sections of jejunum and ileum from mice treated as in FIG. 14 were stained with chloroacetate esterase. […] There was a good correlation shown between the number of mucosal mast cells and the number of diarrhea occurrence during 10 OVA challenges (FIG. 15D). Increased serum IgE and IgG1, but not IgG2a, levels (FIG. 16) and increased expression of mRNAs encoding Th2 cytokines (IL-4, IL-5, IL-13) and proinflammatory cytokines (IL-6, IL-1β) in the intestines were observed (data not shown). In this Th2-skewed model, the amount of HRF in plasma from diarrhea-induced mice, as measured by immunoblotting, was increased by about 2 fold compared to PBS control mice (FIG. 16E). […] However, HRF-reactive IgE was not detected under the study conditions.

[2] = tested on: BALB/c mice; assay: Aspergillus fumigatus allergen-induced airway inflammation model; type: in vivo, mouse; conditions: intranasal 200 ug/50 ul, 30 min before each immunization from the second week

## GST-N19: GST fusion protein encoding the first 19 residues of mHRF; inhibitor of HRF/Ig interactions
[1]; 100 μg/mouse intragastrically before each OVA challenge, vs GST-pretreated or PBS-treated control mice
  Development of diarrhea: prevented in a much greater percentage of mice; also recorded: prevents
[1]; jejunum and ileum sections
  Increase in mucosal mast cells: inhibited
  Increase in serosal mast cells: inhibited
[1]; mouse, in vivo
  Mastocytosis in the small intestine: inhibits
  Plasma level of HRF-reactive IgG: not affected
  Plasma level of total IgE: not affected
  Plasma level of total IgG1: not affected
  Plasma level of total IgG2a: not affected
[2]
  Airway inflammation: efficacy of GST-N19 was confirmed; also recorded: inhibits
